Measurements as given in ChEMBL document CHEMBL1821691, “Cytotoxic C21 and C22 terpenoid-derived metabolites from the sponge Ircinia sp” (J Nat Prod, 2011).

How the values were obtained:
[1] = test system: DLD-1; experiment: Cytotoxicity against human DLD1 cells by XTT reagent based automated microculture tetrazolium assay; type: functional, cell-based
[2] = test system: HepG2; experiment: Cytotoxicity against human HepG2 cells by XTT reagent based automated microculture tetrazolium assay; type: functional, cell-based
[3] = test system: K562; experiment: Cytotoxicity against human K562 cells by XTT reagent based automated microculture tetrazolium assay; type: functional, cell-based
[4] = Cytotoxicity against human Hep3B cells by XTT reagent based automated microculture tetrazolium assay; type: functional, cell-based, Hep 3B2

SMILES	IC50 [1] [µM]	IC50 [2] [µM]	IC50 [3] [µM]	IC50 [4] [µM]
CC(=O)O[C@H](CC/C(C)=C/[C@@H](O)C/C(C)=C/CCc1ccoc1)[C@]1(C)CCC(=O)O1	0.03	0.5	5.4	1.1
C/C(=C\[C@@H](O)C/C(C)=C/CCc1ccoc1)CC[C@@H](O)[C@]1(C)CCC(=O)O1 [IRCIFORMONIN B]	0.04	1	7.8	6.4
CC(=O)O[C@H](/C=C(\C)CC[C@@H](OC(C)=O)[C@]1(C)CCC(=O)O1)C/C(C)=C/CCc1ccoc1 [IRCIFORMONIN F]	0.6	1.7	10.2	7
C/C(=C\[C@@H](O)C/C(C)=C/CCCC(=O)CO)CC[C@@H](O)[C@]1(C)CCC(=O)O1 [IRCINOLIN A]	> 20	> 20	> 20	> 20
CC(=O)O[C@H](/C=C(\C)CC[C@@H](O)[C@]1(C)CCC(=O)O1)C/C(C)=C/CCc1ccoc1	0.2	2.2	9.6	10.6
